# Assays:
# [1] = tested on: immortalized murine fibroblasts (BALB/c-3T3); details: read-out: IC50 BALB-c/3T3; 48 h incubation, MTT
# Method: To evaluate their biological activity, the effects of the four complexes on cell viability were evaluated in eukaryotic cell models. For this purpose, experiments were performed on two cancer cell lines, i.e., human epidermoid carcinoma cells (A431) and murine fibroblast BALB/c-3T3 transformed with the SV40 virus (SVT2), and on two non-cancer cell lines, i.e., immortalized human keratinocytes (HaCaT) and immortalized murine fibroblasts (BALB/c-3T3). Cells were incubated with increasing concentrations of 1,Me-Me, 1,Oct-Me, 1,Me-Oct, and 1,Oct-Oct (from 0.1 to 50 μM). After 48 h of incubation, cytotoxicity was determined by MTT assay and cell survival was expressed as the percentage of viable cells in the presence of each complex compared with that of the untreated cells (Figure S19).
# The immortalized human keratinocytes (HaCaT) were from Innoprot. Human The A431 epidermoid carcinoma, murine BALB/c-3T3, and SVT2 fibroblasts were from ATCC. Cells were cultured in Dulbecco’s modified Eagle’s medium (DMEM) (Sigma-Aldrich, St. Louis, MO, USA), supplemented with 10% foetal bovine serum (HyClone), 2 mM L-glutamine, and antibiotics, all from Sigma-Aldrich, under a 5% CO2-humidified atmosphere at 37 °C. To test the effects of the complexes on cell viability, cells were seeded at a density of 2.5 × 10^3 cells per well in 96-well plates. After 24 h, cells were incubated with increasing concentrations (from 0.1 to 50 μM) of the four complexes. After 48 h, cell viability was assessed by the MTT assay, as previously reported in [43]. Cell viability was expressed as the percentage of viable cells in the presence of the Pt complexes compared to the controls, represented by untreated cells and cells supplemented with identical volumes of DMSO. Each sample was tested in three independent analyses, each carried out in triplicate.
# [2] = In-solution stability in DMSO (1H NMR, UV-vis); type: physicochemical; details: 50 μM in DMSO, 25 °C, up to 7 days
# Method: The stability of the complexes in DMSO-d6, the solvent used to prepare stock solutions for biological experiments, was evaluated by recording their UV–vis absorptions and ^1H-NMR spectra over time.
# UV–vis absorption spectra of 1-Me,Me were recorded in DMSO for 5 h and then after 24 h and 7 days (Figure 5). […] In fact, the λmax experienced a blue shift from 278 to 269 nm, giving rise to an isosbestic point at 275 nm. In addition, a decrease in the absorbance of the shoulder at 300 nm is observed, together with an absorbance increase in the shoulder at 260 nm. […] It is highly probable that a slow release of ethene and dmphen can occur. This would lead to the formation of the square planar species of type 4-R,R’, as reported in Scheme 3.
# In all cases, no cleavage of the Pt–carbene bond was detected. Figure 6 reports the ^1H NMR spectra of 1-Me,Oct after dissolution, 1.5, 5, and 24 h.
# The stability of the 1-R,R’ complexes in DMSO was studied by dissolving 5 mg of each complex in 250 μL of DMSO-d6 and then diluting 200 μL of this solution with 300 μL of DMSO-d6. The stability of the 1-R,R’ complexes in aqueous solvents was studied by dissolving 5 mg of each complex in 250 μL of DMSO-d6 and then diluting 50 μL of this solution with 500 μL of D2O. The ^1H-NMR spectra of the resulting solutions were recorded over time. […]
# SVT2 cells = assay: Cellular Pt uptake by ICP-MS, SVT2; type: cell-based, murine; details: SVT2, 9.8 μM (IC50), 48 h, mean ± S.E.
# Method: In particular, SVT2 and A431 were incubated for 48 h with 1-Me,Me and 1-Oct,Me, using the IC50 value concentrations. At the end of incubation, uptake and cell death mechanisms were evaluated. […] Finally, apoptosis was investigated by Western blot analyses using specific antibodies against pro-caspases 9 and 3.
# To study the uptake of the complexes, SVT2 and A431 were incubated for 48 h in the presence of 1-Me,Me and 1-Oct,Me, respectively, at their IC50 concentrations. At the end of incubation, Pt determination was performed by inductively coupled plasma mass spectrometry (ICP-MS, Aurora M90; Bruker, Ettlingen/Leipzig, Germany) in the “Normal Sensitivity” mode. Calibration curves for the quantification of Pt ranged from 0.1 to 100 μg/L and were constructed daily by the analysis of the standard solutions prepared immediately before analysis. All standards used for analysis were prepared in HNO3 solution (2%, v/v). The internal standards were ^89Y and ^115In in both the calibration curve and sample analyses. The linearity was acceptable with an R^2 value greater than 0.9996. The treatment of the cells involved a wet digestion: after centrifugation, cell samples were wet digested with 1 mL of ultrapure HNO3 (67–69%, v/v). The mixture was gently boiled over a water bath (90 °C) for 3 h until a clear solution was obtained. […]
# Calf thymus DNA = assay: Ethidium bromide displacement DNA binding assay; details: 0.05 M ammonium acetate pH 7.5, titration with complex
# From the text: The interaction of Pt-based drugs with biological macromolecules deeply affects their biological activity. DNA represents a target for this kind of metallodrug, while proteins are considered both as carriers and targets. To obtain information on the reactivity of the synthesised Pt compounds with DNA, fluorescence intercalation displacement assays have been performed using ethidium bromide (EB) as the DNA intercalator. When bound to DNA, EB has an emission fluorescence of significant intensity. On the other hand, when it is displaced by a competitive DNA-binding molecule, it undergoes quenching by water molecules. Thus, if a molecule binds DNA by displacing EB, a significant reduction in the fluorescence intensity of the EB-DNA complex will be observed.
# The ethidium bromide (EB) displacement assay was performed on a HORIBA FluoroMax-4 spectrofluorometer equipped with a thermostat bath. Calf thymus DNA was incubated with EB in 0.05 M of ammonium acetate at pH 7.5, at a DNA:EB molar ratio of 1:5 for 30 min in the dark at room temperature. Then, the fluorescence quenching of this complex was evaluated by adding to it increasing amounts of Pt compounds dissolved in DMSO (20 mM). Samples were equilibrated for 5 min before collecting each spectrum. […]
substance,measurement,setting,value
"Platinum(1+), (2,9-dimethyl-1,10-phenanthroline- N1,N10)(η2-ethene)methyl[1,3-dihydro-1,3-dimethyl-4-[1-[2,3,4,6-tetrakis-O-(acetyl)-β-D-glucopyranosyl]-1H-1,2,3-triazol-4-yl]-2H-imidazol-2-ylidene], 1,1,1-trifluoromethanesulfonate [1-Me,Me]",IC50,[1],26 ± 1 µM
same,"stability, UV-vis spectra over time",[2],poor stability
same,Pt uptake,SVT2 cells,0.772 ± 0.010 Pt ng/10^6 cells
same,fluorescence intensity of EB-DNA complex,Calf thymus DNA,significant reduction in fluorescence intensity

# Source: article PMC9916762, “Impact of Hydrophobic Chains in Five-Coordinate Glucoconjugate Pt(II) Anticancer Agents” (International Journal of Molecular Sciences, 2023)
